Data reported in ChEMBL document CHEMBL1149880, “Xanthones from Gentianella amarella ssp. acuta with acetylcholinesterase and monoamine oxidase inhibitory activities” (J Nat Prod, 2008).

How the values were obtained:
[1] = target: T1, Amine oxidase [flavin-containing] A (Homo sapiens, UniProt P21397); assay: Inhibition of monoamine oxidase A at 10 uM; conditions: read-out: INH
T1 sequence (P21397 whole entry): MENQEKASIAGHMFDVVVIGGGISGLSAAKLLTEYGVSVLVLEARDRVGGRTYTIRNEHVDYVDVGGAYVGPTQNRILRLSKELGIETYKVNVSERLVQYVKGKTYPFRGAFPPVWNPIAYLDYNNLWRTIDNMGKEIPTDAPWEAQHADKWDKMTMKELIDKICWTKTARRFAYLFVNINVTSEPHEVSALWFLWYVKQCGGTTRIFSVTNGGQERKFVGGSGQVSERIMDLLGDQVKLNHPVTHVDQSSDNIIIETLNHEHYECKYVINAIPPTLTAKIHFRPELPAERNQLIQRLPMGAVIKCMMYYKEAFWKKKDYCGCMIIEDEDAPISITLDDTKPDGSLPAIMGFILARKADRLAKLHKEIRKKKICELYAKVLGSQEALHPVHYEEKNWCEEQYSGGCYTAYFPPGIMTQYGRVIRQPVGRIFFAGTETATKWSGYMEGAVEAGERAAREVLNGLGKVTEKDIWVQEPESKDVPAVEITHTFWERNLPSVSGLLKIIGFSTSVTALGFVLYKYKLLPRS

[2] = target: T2, Amine oxidase [flavin-containing] B (Homo sapiens, UniProt P27338); assay: Inhibition of monoamine oxidase B at 10 uM; conditions: read-out: INH
T2 sequence (P27338 whole entry): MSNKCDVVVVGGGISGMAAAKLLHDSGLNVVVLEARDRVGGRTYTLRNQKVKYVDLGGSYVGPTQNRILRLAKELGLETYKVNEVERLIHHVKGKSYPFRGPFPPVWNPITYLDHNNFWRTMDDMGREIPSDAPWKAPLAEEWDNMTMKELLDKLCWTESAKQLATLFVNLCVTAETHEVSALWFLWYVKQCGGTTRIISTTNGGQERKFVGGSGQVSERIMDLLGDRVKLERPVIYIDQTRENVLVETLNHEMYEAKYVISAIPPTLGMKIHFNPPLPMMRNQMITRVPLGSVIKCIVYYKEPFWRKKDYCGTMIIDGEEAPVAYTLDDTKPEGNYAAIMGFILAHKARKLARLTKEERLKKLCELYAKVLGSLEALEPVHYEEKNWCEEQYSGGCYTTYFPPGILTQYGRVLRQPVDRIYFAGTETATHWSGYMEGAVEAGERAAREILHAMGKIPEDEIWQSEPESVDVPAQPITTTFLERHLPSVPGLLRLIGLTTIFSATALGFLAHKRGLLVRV

[3] = target: Acetylcholinesterase (Homo sapiens) (UniProt P22303); conditions: at 10 µM
Sequence of Acetylcholinesterase (Homo sapiens) (P22303 whole entry): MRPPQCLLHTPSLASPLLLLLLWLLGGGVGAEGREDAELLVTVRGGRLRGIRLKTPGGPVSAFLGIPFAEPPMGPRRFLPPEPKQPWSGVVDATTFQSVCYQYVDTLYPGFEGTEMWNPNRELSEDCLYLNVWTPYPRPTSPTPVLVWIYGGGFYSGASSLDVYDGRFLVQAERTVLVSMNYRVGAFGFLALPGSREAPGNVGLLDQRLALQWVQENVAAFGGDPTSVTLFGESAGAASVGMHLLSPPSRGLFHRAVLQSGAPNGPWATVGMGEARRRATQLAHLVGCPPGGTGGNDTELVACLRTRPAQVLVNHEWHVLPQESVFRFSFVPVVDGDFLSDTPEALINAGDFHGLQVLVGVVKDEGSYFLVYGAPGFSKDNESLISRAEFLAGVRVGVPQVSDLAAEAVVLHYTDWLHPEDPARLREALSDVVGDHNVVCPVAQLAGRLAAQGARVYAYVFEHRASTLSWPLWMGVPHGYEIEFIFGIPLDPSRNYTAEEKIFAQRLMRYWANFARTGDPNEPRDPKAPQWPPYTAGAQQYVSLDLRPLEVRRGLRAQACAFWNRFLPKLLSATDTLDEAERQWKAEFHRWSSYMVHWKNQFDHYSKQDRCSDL
Description: Inhibition of acetylcholinesterase at 10 uM by Ellman's method

SMILES	inhibition at 10 µM [1]	inhibition at 10 µM [2]	inhibition [3]
C#CCN(C)Cc1ccccc1 [PARGYLINE]	60%	98.2%	–
O=c1c2c(O)cc(O)cc2oc2c(O)ccc(O[C@@H]3O[C@H](CO)[C@@H](O)[C@H](O)[C@H]3O)c12 [NORSWERTIANOLIN]	12.2%	28.9%	4.4%
COc1cc(O)c2c(=O)c3c(O[C@@H]4O[C@H](CO)[C@@H](O)[C@H](O)[C@H]4O)ccc(O)c3oc2c1 [SWERTIANOLIN]	43.8%	93.6%	9.8%
COc1ccc(O[C@@H]2O[C@H](CO)[C@@H](O)[C@H](O)[C@H]2O)c2c(=O)c3c(O)c(-c4cc(O)c5oc6cc(O)cc(O)c6c(=O)c5c4O)c(O)cc3oc12	21.4%	39.1%	12.3%
COc1cc(O)c2c(=O)c3cc(O[C@@H]4O[C@H](CO)[C@@H](O)[C@H](O)[C@H]4O)ccc3oc2c1OC [VERATRILOSIDE]	19.4%	56%	28.2%
O=c1c2c(O)cc(O)cc2oc2c(O)ccc(O)c12 [DEMETHYLBELLIDIFOLIN]	90.5%	59%	17.5%
COc1cc(O)c2c(=O)c3c(O)ccc(O)c3oc2c1 [BELLIDIFOLIN]	98.9%	65.2%	21.9%
COc1c(O)ccc2c(=O)c3c(OC4O[C@H](CO)[C@@H](O)[C@H](O)[C@H]4O)cc(O)c(OC)c3oc12 (some centres not stated)	15%	70.5%	1.5%
COc1cc(O)c2c(=O)c3c(O)c(O[C@@H]4O[C@H](CO)[C@@H](O)[C@H](O)[C@H]4O)ccc3oc2c1OC [TRIPTEXANTHOSIDE C]	13.4%	38.8%	43.7%
O=c1c2c(O)c(-c3cc(O)c4oc5cc(O)cc(O)c5c(=O)c4c3O)c(O)cc2oc2c(O)ccc(O)c12	14.8%	41.1%	20.9%
COc1ccc(O)c2c(=O)c3c(O)cc(O[C@@H]4O[C@H](CO)[C@@H](O)[C@H](O)[C@H]4O)c(OC)c3oc12	40.2%	47.8%	17.6%
